What all share (type): in vivo, zebrafish (Danio rerio)
The subject of test [1] is zebrafish larvae. The test is described as follows: PTZ-induced seizure behaviour (latency and number of seizures) after 24 h compound pretreatment. The conditions noted are these: tripeptide 25, 10 and 5 μg/mL, 24 h pretreatment, then 15 mM PTZ, 10 min visual observation; vs PTZ group. As to the method:
(§1) For all compounds, zebrafish larvae at 6 days post-fertilization (dpf) were randomly placed into Petri dishes, each one containing 25 larvae. The larvae were incubated in the respective solutions and concentrations for 24h (as specified in Table 1) prior to seizure induction. The temperature and photoperiod conditions were consistent with those described for the adult zebrafish. The study groups consisted of the Control Group (CG), PTZ Group (PTZ), Treatment 1, Treatment 2, and Treatment 3. Treatments 1 to 3 employed the previously determined concentrations mentioned above.
Seizure induction followed the pretreatment of the compounds. Larvae with 7 dpf were carefully transferred to a 96-well plate filled with 100 μL of aquarium water, with one larva per well. Subsequently, 100 μL of 30 mM of the proconvulsant agent pentylenetetrazol (PTZ) (Sigma-Aldrich, St. Louis, MO, USA) was added to each well, resulting in a final concentration of 15 mM of PTZ. The larvae were exposed to PTZ for 20 minutes. The control group underwent the same procedure but in PTZ-free water.
The latency and number of seizures were monitored through visual observation, following the method described by Barbalho et al., 2016a. […] Larvae were evaluated for 10 minutes of PTZ exposure, and a complete seizure was considered when they reached stage 3.

In test [2] the test system is il1b. As to the kind of experiment: RT-qPCR of il1b transcript in larval heads after PTZ-induced seizures. The conditions noted are these: tripeptide 24 h, then 15 mM PTZ 20 min; significant effects at 10 and 5 μg/mL; n = 5 pools of five heads; vs PTZ group. As to the method:
as §1
(§2) Seizure induction followed the pretreatment of the compounds. […]
(§3) Immediately after PTZ exposure, fish were cryo-anesthetized and their heads were cut, collected, and then incubated in TRIzol® (Invitrogen, Carlsbad, CA, USA). […] The concentration and quality were determined using the Epoch™ spectrophotometer (BioTek, Winooski, VT, USA) and gel electrophoresis.
(§4) The synthesis of cDNA was carried out using the High-Capacity cDNA Reverse Transcription kit (Applied Biosystems™, Califórnia, USA) following the manufacturer’s instructions. Quantitative PCR (qPCR) was performed using the SYBR ® Green Master Mix reagent (Bio-Rad) using the ABI 7500 system (Applied Biosystems, Foster City, CA, USA). […] Data were evaluated using 7500 software v2.03 (Applied Biosystems). […]

Test [3] relates to casp9. The test is described as follows: RT-qPCR of casp9 transcript in larval heads after PTZ-induced seizures. The conditions noted are these: tripeptide 24 h, then 15 mM PTZ 20 min; significant effects at 10 and 5 μg/mL; n = 5 pools of five heads; vs PTZ group. As for the experimental part: as §1, §2, §3, §4
In general terms: Real-time PCR tracks product formation cycle by cycle.

Test [4] deals with casp3a. As to the kind of experiment: RT-qPCR of casp3a transcript in larval heads after PTZ-induced seizures. The following applies: tripeptide 10 μg/mL 24 h, then 15 mM PTZ 20 min; no statistical difference detected; n = 5. As to the method:
as §1, §2, §3, §4

For test [5], the system named is baxa. As to the kind of experiment: RT-qPCR of baxa transcript in larval heads after PTZ-induced seizures. The following applies: tripeptide 10 μg/mL 24 h, then 15 mM PTZ 20 min; no statistical difference detected; n = 5. As for the experimental part: as §1, §2, §3, §4
Test [6] relates to bcl2a. As to the kind of experiment: RT-qPCR of bcl2a transcript in larval heads after PTZ-induced seizures. The following applies: tripeptide 10 μg/mL 24 h, then 15 mM PTZ 20 min; no statistical difference detected; n = 5. As for the experimental part:
as §1, §2, §3, §4

Glu-Val-Trp [Tripeptide]: in test [1], the number of seizures entry was “No statistical significance was found” and the “seizure latency (time to stage 3 seizure-like activity)” value is “No statistical significance was found”. For the same substance, in test [2], the “il1b gene expression (RQ = 2-ΔΔCT)” value was “downregulation”. For the same substance, the “casp9 gene expression (RQ = 2-ΔΔCT)” value in test [3] is “downregulation”. Besides, the “casp3a gene expression (RQ = 2-ΔΔCT)” value in test [4] is recorded as “roughly equivalent to or slightly higher than those of the PTZ group”. Moreover, the “baxa gene expression (RQ = 2-ΔΔCT)” value in test [5] was “roughly equivalent to or slightly higher than those of the PTZ group”. Also, the “bcl2a gene expression (RQ = 2-ΔΔCT)” value in test [6] is “roughly equivalent to or slightly higher than those of the PTZ group”.

(Values after article doi:10.1101/2024.07.29.605666v2, “Effects of two different compounds on seizure suppression using the zebrafish PTZ-seizure model” (bioRxiv, 2024).)
